According to PMC12362587, “Untargeted Diversity-Oriented Synthesis for the Discovery of New Antitumor Agents: An Integrated Approach of Inverse Virtual Screening, Bioinformatics, and Omics for Target Deconvolution” (Journal of Medicinal Chemistry, 2025):

Legend:
Phosphodiesterase 10A2 = biological target: T1, Phosphodiesterase 10A2 (Homo sapiens, UniProt Q9Y233); assay: Enzymatic LeadHunter Assay; format: biochemical; details: Eurofins enzymatic; read-out: EC50 or IC50, Phosphodiesterase 10A2
T1 construct: Eurofins (contract assay)
T1 sequence (Q9Y233 267-1055): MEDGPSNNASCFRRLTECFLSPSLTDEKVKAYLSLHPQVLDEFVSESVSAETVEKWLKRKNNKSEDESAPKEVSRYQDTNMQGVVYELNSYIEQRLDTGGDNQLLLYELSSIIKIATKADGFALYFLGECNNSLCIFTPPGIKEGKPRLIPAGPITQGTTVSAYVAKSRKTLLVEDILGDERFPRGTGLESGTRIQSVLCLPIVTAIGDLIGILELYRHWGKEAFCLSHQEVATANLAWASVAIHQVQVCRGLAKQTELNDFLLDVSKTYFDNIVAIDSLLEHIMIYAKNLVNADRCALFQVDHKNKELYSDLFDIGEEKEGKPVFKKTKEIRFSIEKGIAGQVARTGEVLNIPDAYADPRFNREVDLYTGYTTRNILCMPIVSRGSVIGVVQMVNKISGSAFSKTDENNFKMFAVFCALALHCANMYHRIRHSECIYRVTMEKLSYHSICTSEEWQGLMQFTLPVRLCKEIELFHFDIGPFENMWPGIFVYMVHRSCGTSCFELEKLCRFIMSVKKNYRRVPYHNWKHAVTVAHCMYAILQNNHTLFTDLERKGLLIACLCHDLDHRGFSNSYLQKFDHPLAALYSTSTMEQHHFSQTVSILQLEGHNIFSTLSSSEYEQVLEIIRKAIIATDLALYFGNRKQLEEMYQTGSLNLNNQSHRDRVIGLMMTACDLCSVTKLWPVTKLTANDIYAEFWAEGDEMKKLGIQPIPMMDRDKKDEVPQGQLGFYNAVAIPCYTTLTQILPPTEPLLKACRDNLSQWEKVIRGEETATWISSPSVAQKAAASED
From the text: (§1) For displacement assays on G-protein coupled receptor 55 (GPR55), Vasopressin V2 receptor (V2R), Adenosine A1 receptor (A1AR), Fibroblast growth factor receptor 1 (FGFR1), Vascular endothelial growth factor receptor 2 (VEGFR2), Platelet-derived growth factor receptor beta (PDGFRB), Vascular endothelial growth factor receptor 1 (VEGFR1), Thromboxane Synthase (TXS) and Phosphodiesterase 10A (PDE10A), we commissioned the Eurofins company which employed its specific experimental methods, accessible at the link: https://www.eurofins.com/.

Thromboxane Synthase = biological target: T2, Thromboxane Synthase (Homo sapiens, UniProt P24557); assay: Enzymatic LeadHunter Assay; format: biochemical; details: Eurofins enzymatic; read-out: EC50 or IC50, Thromboxane Synthase
T2 construct: Eurofins (contract assay)
T2 sequence (P24557 whole entry): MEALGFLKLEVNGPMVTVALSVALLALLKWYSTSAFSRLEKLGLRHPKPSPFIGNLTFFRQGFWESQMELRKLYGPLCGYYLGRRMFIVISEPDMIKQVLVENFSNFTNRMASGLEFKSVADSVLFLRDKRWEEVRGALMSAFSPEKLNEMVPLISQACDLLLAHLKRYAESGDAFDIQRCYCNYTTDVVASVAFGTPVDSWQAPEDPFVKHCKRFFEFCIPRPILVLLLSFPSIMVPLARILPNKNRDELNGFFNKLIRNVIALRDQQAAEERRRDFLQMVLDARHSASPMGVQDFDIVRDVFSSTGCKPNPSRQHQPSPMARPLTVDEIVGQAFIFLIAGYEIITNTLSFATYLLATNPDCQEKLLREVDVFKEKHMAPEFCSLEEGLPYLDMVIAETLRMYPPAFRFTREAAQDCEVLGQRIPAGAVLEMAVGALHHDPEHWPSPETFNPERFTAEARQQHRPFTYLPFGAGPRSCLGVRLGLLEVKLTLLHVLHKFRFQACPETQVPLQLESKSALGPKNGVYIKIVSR
From the text: as §1

[1] = biological target: T3, Poly [ADP-ribose] polymerase tankyrase-1 (Homo sapiens, UniProt O95271); assay: TNKS1 (PARP5A) Colorimetric Assay Kit (BPS Bioscience); format: biochemical; details: top concentration 30 μM; read-out: EC50 or IC50, Poly [ADP-ribose] polymerase tankyrase-1
T3 construct: (TNKS1) enzyme (amino acids 1001–1323; final concentration, 1.5 ng per reaction); purchased BPS Bioscience
T3 sequence (O95271 1001-1323): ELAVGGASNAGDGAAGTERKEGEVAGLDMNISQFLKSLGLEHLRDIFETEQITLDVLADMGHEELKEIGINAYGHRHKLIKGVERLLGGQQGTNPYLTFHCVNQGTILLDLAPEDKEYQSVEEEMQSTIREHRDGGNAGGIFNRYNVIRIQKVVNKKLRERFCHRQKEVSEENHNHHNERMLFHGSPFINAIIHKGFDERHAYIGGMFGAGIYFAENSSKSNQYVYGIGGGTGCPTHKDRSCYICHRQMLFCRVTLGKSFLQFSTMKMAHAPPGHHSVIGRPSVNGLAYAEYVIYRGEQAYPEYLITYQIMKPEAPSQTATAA
Description: The assay was performed in a volume of 50 μL in a 96-well transparent plate. The TNKS1 assay kit (PARP5A; BPS Bioscience, USA) was performed by first coating the 96-well plate with histone proteins, then left at 4 °C overnight. Next, Poly [ADP-ribose] polymerase tankyrase-1 (TNKS1) enzyme (amino acids 1001–1323; final concentration, 1.5 ng per reaction), a mixture of biotinylated NAD^+ (PARP substrate) and compounds were incubated for 1 h at room temperature. The compounds were added at different concentrations in the reaction buffer, starting from a final concentration of 30 μM. Buffer with the same amount of DMSO (1%) was used as a negative control. After incubation, the plate was treated with streptavidin-HRP followed by the addition of the colorimetric HRP substrate generating a colored solution. The generated signal was read at an absorbance of 450 nm using a microplate reader with UV/vis spectrophotometer (Multiskan Go, Thermo Fisher Scientific, Waltham, MA, USA). Experiments were performed in triplicate. IC50 values were calculated with GraphPad Prism 8.0 software by nonlinear dose–response inhibition regression.

[2] = biological target: T4, serine/threonine-protein kinase B-raf (V600E) (Homo sapiens, UniProt P15056, V600E); assay: B-Raf kinase assay (V600E; BPS Bioscience); format: biochemical; details: top concentration 30 μM, read-out: EC50 or IC50, serine/threonine-protein kinase B-raf
T4 construct: purchased BPS Bioscience
T4 sequence (P15056 whole entry V600E): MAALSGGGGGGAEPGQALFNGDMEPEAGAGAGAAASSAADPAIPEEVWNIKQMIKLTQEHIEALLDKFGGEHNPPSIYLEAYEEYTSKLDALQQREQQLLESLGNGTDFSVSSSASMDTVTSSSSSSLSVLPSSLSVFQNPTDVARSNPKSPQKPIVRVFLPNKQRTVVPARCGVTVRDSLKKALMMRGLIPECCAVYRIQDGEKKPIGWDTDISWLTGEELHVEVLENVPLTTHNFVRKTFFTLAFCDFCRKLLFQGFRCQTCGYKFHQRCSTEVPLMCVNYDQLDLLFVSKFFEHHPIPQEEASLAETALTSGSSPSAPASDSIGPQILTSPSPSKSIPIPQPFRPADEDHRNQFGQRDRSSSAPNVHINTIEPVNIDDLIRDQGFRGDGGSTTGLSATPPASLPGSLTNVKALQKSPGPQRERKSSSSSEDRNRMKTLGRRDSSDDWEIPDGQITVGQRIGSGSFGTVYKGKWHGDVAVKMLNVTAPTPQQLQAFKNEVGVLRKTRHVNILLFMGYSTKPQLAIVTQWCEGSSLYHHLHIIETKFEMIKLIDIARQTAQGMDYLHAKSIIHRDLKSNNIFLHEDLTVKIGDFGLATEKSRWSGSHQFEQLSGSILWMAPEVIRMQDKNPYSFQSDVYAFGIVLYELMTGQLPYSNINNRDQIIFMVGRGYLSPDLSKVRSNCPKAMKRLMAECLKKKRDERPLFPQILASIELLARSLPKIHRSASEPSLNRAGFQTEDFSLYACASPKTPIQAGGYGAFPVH
Description: The assay was performed in a volume of 50 μL in a 96-well white plate. The B-Raf kinase assay (V600E; BPS Bioscience, USA) was designed to measure B-Raf kinase activity by the use of Kinase-Glo MAX (Promega, USA), which detects ATP residual following the kinase reaction. For activity measurement, the kinase (final concentration, 2 ng per reaction), Raf substrate and ATP (final concentration, 500 μM), and compounds were incubated for 45 min at 30 °C. The compounds were added at different concentrations in the reaction buffer, starting from a final concentration of 30 μM. Buffer with the same amount of DMSO (1%) was used as a negative control. After the incubation time, Kinase-Glo MAX detection reagent was added for 15 min at room temperature. The generated luminescent signal was read in end point mode using a PerkinElmer AlphaScreen multimodal plate reader (PerkinElmer, Waltham, MA, USA). Experiments were performed in triplicate. IC50 values were calculated with GraphPad Prism 8.0 software by nonlinear dose–response inhibition regression.

rat TRPA1 = biological target: T5, rat TRPA1 (Rattus norvegicus, UniProt Q6RI86); assay: Ca2+-imaging assay with Fluo-4 AM; format: cell-based; details: agonist effect, HEK-293 cells overexpressing rat TRPA1, Fluo-4 AM; read-out: EC50 or IC50, transient receptor potential A1
T5 construct: expressed in transfected cells; host or cells: HEK-293
T5 sequence (Q6RI86 whole entry): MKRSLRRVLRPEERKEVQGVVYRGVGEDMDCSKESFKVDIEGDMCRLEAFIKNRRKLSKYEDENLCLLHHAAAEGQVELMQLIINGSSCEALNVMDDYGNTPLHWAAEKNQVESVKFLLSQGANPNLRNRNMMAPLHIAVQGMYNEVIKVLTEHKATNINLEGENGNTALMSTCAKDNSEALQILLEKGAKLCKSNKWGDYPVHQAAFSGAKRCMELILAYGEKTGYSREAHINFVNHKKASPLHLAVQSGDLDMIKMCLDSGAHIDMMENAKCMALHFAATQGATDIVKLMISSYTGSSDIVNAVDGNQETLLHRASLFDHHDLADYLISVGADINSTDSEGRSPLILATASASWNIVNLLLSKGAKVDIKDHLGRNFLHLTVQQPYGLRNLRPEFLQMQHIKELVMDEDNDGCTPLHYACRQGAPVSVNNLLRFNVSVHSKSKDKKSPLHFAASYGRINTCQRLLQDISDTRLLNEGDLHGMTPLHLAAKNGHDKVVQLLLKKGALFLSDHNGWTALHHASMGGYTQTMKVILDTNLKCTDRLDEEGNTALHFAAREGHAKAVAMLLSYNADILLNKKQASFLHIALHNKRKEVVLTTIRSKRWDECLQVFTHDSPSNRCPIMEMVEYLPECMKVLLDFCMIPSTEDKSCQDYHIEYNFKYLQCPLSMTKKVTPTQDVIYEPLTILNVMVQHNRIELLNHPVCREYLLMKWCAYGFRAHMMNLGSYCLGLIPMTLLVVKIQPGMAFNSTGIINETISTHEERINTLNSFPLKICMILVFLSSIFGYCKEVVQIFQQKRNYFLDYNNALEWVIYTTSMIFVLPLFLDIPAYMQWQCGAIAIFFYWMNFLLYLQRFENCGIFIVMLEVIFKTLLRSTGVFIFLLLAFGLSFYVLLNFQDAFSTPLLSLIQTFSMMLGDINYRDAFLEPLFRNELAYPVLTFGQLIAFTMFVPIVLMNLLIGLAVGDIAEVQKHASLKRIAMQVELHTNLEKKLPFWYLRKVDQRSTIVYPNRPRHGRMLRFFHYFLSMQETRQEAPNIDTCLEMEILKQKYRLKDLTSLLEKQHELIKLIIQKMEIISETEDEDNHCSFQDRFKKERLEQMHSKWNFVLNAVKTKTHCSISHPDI
Description: (§2) HEK-293 cells, stably overexpressing recombinant rat TRPM8 or rat TRPA1, were cultured as monolayers in 100 mm Petri dishes using Minimum Essential Media supplemented with 2 mM glutamine, 1% nonessential amino acids, 10% FBS, and maintained at 37 °C under 5% CO2. On the day of the experiment, both nontransfected and transfected HEK-293 cells were loaded for 1 h at room temperature in the dark with the calcium-sensitive fluorescent probe Fluo-4 AM (4 μM, dissolved in dimethyl sulfoxide with 0.02% Pluronic F-127). After loading, cells were washed twice with Tyrode’s solution (145 mM NaCl, 2.5 mM KCl, 1.5 mM CaCl2, 1.2 mM MgCl2, 10 mM D-glucose, 10 mM HEPES, pH 7.4) and transferred to a quartz cuvette (approximately 100,000 cells) in a spectrofluorometer (PerkinElmer LS50B; λEX = 488 nm, λEM = 516 nm) under continuous stirring. Fluorescence was recorded before and after the addition of various concentrations of test compounds. The observed effects were normalized to the response elicited by ionomycin (4 μM). Baseline fluorescence values from nontransfected HEK-293 cells were subtracted from the measurements obtained in transfected cells. The potency of the test compounds was expressed as the concentration required to elicit a half-maximal agonist effect (EC50), measured as half-maximal increases in intracellular calcium concentration ([Ca^2+]-i). The efficacy of TRPA1 agonists was reported as a percentage of the maximal effect induced by allyl isothiocyanate (AITC, 100 μM). Antagonistic or desensitizing effects were assessed by preincubating cells with the test compounds in the quartz cuvette for 5 min before stimulating them with the specific TRP agonist (AITC, 100 μM for TRPA1, or icilin, 0.25 μM for TRPM8). IC50 values were determined as the concentration required to produce a half-maximal inhibition of the agonist effect, with the agonist-induced [Ca^2+]-i response set at 100%. Measurements of [Ca^2+]-i in TRPM8-expressing cells were conducted at 22 °C using a Fluorescence Peltier System (PTP-1, PerkinElmer). All experiments were performed in triplicate or greater. Curve fitting (sigmoidal concentration–response with variable slope) and parameter estimation were conducted using GraphPad Prism 10 (GraphPad Software Inc., San Diego, CA).

rat TRPM8 = biological target: T6, rat TRPM8 (Rattus norvegicus, UniProt Q8R455); assay: Ca2+-imaging assay with Fluo-4 AM; format: cell-based; details: inhibition of icilin 0.25 μM, HEK-293 cells overexpressing rat TRPM8, Fluo-4 AM; read-out: EC50 or IC50, transient receptor potential M8
T6 construct: expressed in transfected cells; host or cells: HEK-293
T6 sequence (Q8R455 whole entry): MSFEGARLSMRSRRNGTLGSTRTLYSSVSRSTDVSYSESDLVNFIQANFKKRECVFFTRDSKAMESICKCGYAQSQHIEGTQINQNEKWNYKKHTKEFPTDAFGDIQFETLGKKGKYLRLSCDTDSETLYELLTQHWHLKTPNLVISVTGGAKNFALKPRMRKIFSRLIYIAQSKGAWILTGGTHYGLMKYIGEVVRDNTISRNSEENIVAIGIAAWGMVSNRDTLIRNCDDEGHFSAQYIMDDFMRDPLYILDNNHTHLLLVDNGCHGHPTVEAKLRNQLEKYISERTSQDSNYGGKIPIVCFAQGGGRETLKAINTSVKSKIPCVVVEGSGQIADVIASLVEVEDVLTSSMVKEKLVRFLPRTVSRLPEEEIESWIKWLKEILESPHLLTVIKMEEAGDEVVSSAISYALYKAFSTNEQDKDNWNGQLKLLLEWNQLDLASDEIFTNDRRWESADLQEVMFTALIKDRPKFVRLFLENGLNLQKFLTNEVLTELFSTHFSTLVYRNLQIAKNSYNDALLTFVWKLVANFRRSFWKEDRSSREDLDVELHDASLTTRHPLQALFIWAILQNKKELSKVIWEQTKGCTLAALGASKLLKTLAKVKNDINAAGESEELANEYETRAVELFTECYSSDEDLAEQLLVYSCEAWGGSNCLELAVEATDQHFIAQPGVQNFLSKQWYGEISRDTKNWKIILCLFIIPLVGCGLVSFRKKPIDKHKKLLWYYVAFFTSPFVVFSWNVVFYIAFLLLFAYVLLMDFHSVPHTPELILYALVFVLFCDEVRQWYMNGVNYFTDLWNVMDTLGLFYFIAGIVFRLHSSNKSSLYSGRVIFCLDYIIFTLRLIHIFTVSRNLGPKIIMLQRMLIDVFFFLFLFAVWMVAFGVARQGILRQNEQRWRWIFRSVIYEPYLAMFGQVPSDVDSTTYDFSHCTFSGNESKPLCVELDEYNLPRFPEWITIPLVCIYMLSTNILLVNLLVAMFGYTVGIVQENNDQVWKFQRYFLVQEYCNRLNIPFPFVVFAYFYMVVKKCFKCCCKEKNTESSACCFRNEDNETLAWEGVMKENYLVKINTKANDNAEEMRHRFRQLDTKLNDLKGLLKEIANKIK
Description: as §2

Question: CC(C)C[C@H]1C(=O)N(Cc2ccc(C(F)(F)F)cc2)c2ccccc2C(=O)N1Cc1ccc(C(F)(F)F)cc1 [Compound 31, (S)-3-Isobutyl-1,4-bis(4-(trifluoromethyl)benzyl)-3,4-dihydro-1H-benzo[e][1,4]diazepine-2,5-dione] was tested. Which IC50 (Phosphodiesterase 10A2) did it give?
Answer: ≥ 30 µM

Question: And the IC50 (Thromboxane Synthase)?
Answer: ≥ 30 µM

Question: What about the IC50 [1] of the same compound?
Answer: > 30 µM

Question: What about the IC50 [2] of the same compound?
Answer: ≥ 30 µM

Question: And the EC50 (rat TRPA1)?
Answer: 0.2 ± 0.09 µM

Question: What about the IC50 (rat TRPM8) of the same compound?
Answer: > 30 µM

Question: With CC(C)C[C@@H](C(=O)OCc1ccccc1)N1Cc2ccccc2NC1=O [Compound 63, Benzyl (S)-4-Methyl-2-(2-oxo-1,4-dihydroquinazolin-3(2H)-yl)pentanoate] as the compound, how does the IC50 (Phosphodiesterase 10A2) read?
Answer: ≥ 30 µM

Question: And the IC50 (Thromboxane Synthase)?
Answer: ≥ 30 µM

Question: And the IC50 [1]?
Answer: > 30 µM

Question: What about the IC50 [2] of the same compound?
Answer: ≥ 30 µM

Question: And the EC50 (rat TRPA1)?
Answer: 2.54 ± 1.2 µM

Question: And the IC50 (rat TRPM8)?
Answer: 0.36 ± 0.08 µM
